Measurements from patent US6573045B1, “Methods and kits for discovery of RNA-binding compounds” (Ribotargets, Ltd., priority 1998, dated 2003).
Where “and” joins values, the source holds several entries; their conditions need not be identical. Identical values can stand only once. Ends that are not written are not given here. * marks the point of attachment. TAMRA = tetramethylrhodamine (fluorescent label); DABCYL = CN(C)c1ccc(/N=N/c2ccc(C(=O)*)cc2)cc1

What was measured:
[1] = target: DABCYL-TAR RNA; assay: Quenching of TAMRA-labelled Rev peptide by DABCYL-TAR RNA; assay type: binding, HIV; settings: 20 nM TAMRA-Rev, increasing DABCYL-TAR, FIG. 22
Experimental: 20 nM TAMRA-Rev was incubated with increasing concentrations of DABCYL-TAR. The TAMRA-Rev was pre-treated in the presence of 1% TFA at room temperature for 5 minutes prior to dilution into storage buffer (0.01% Triton X-100, 5 μg/ml BSA, 1% DMSO, 50 mM Tris-HCl pH 8, 50 mM KCl) and incubated on ice prior to complex formation. Reactions were equilibrated at room temperature for 15 minutes prior to analysis in the Wallac Victor2 plate reader. The reactions were excited at 544 nm and fluorescence emission recorded at 570 nm. The fluorescence emission signal of the 20 nM TAMRA-Rev alone was subtracted from each signal obtained in the presence of increasing amounts of DABCYL-TAR and plotted as a function of DABCYL-TAR concentration (FIG. 22) in GraphPad PRISMTM using a non linear regression fit for single site binding.

[2] = target: DABCYL-RRE RNA; assay: Quenching of TAMRA-labelled Rev peptide by DABCYL-RRE RNA; assay type: binding, HIV; settings: 20 nM TAMRA-Rev, increasing DABCYL-RRE, FIG. 21
Experimental: In the experiment shown in FIG. 21, 20 nM TAMRA-Rev was incubated with increasing concentrations of DABCYL-RRE. The TAMRA-Rev was pre-treated in the presence of 1% TFA at room temperature for 5 minutes prior to dilution in to storage buffer (0.01% Triton X-100, 5 μg/ml BSA, 1% DMSO, 50 mM Tris-HCl pH 8, 50 mM KCl) and incubated on ice prior to complex formation. Reactions were equilibrated at room temperature for 15 minutes prior to analysis in the Wallac Victor2 plate reader. The reactions were excited at 544 nm and fluorescence emission recorded at 570 nm. The fluorescence emission signal of the 20 nM TAMRA-Rev alone was subtracted from each signal obtained in the presence of increasing amounts of DABCYL-RRE and plotted as a function of DABCYL-RRE concentration (FIG. 21) in GraphPad PRISMTM using a non linear regression fit for single site binding.

[3] = target: TAR bulge RNA; assay: Dabcyl-peptide binding to Fam-labelled RNA (quenching), TAR; design: species or system HIV; settings: 110 mM KCl
Text: (§1) A representative subset comprising 40 peptide sequences from the total of 243 possible sequences was synthesised and is shown in Table 6. The peptides from the library are: No. 3 (SEQ ID NO:11), 4 (SEQ ID NO:12), 5 (SEQ ID NO:13), 6 (SEQ ID NO:14), 7 (SEQ ID NO:15), 8 (SEQ ID NO:16), 9 (SEQ ID NO:17), 10 (SEQ ID NO:18), 11 (SEQ ID NO:19), 12 (SEQ ID NO:20), 13 (SEQ ID NO:21), 14 (SEQ ID NO:22), 15 (SEQ ID NO:23), 16 (SEQ ID NO:24), 17 (SEQ ID NO:25), 18 (SEQ ID NO:26), 19 (SEQ ID NO:27), 20 (SEQ ID NO:28), 21 (SEQ ID NO:29), 22 (SEQ ID NO:30), 23 (SEQ ID NO:31), 24 (SEQ ID NO:32), 25 (SEQ ID NO:33), 26 (SEQ ID NO:34), 27 (SEQ ID NO:35), 28 (SEQ ID NO:36), 29 (SEQ ID NO:37), 30 (SEQ ID NO:38), 31 (SEQ ID NO:39), 32 (SEQ ID NO:40), 33 (SEQ ID NO:41), 34 (SEQ ID NO:42), 35 (SEQ ID NO:43), 36 (SEQ ID NO:44), 37 (SEQ ID NO:45), 38 (SEQ ID NO:46), 39 (SEQ ID NO:47), 40 (SEQ ID NO:48), 41 (SEQ ID NO:49), 42 (SEQ ID NO:50). These peptides were assayed for their ability to bind to range of RNA sequences carrying fluorescein attached to the 5′ end, as shown in FIG. 25.
(§2) FIG. 26. presents binding data for the peptide sequence 5 (KKQKR) (SEQ ID NO: 13) and the 4 RNA sequences. Reactions (100 μl) containing Fam-labelled RNA (10 nM) were mixed with increasing concentrations of Dabcyl-labelled ADP-1 peptide (up to 250 nM) in 50 mM Tris/Cl, pH7.4, 20 mM or 110 mM KCl (as indicated), 5 μg/ml BSA, 0.01% Triton X-100, 1% DMSO. Fluorescence (excitation 490 nm/emission at 535 nm) was determined using a Victor plate reader.
(§3) Dissociation constants were determined by fitting a binding isotherm (1-site-binding) to the data using the equation:
(§4) Y=((Fmax−Fmin)−((Fmax−Fmin)*X/(Kd+X)))+Fmin
(§5) where Fmax is fluorescence in the absence of quencher, Fmin is fluorescence at saturation, and X is peptide concentration.

[4] = target: FAM-TAR RNA; assay: Quenching of FAM-TAR RNA by DABCYL-labelled ADP-1; assay type: binding, HIV; settings: 20 nM FAM-TAR, FIG. 19
Experimental: It is also possible to place a fluorescent group on the RNA target and a quenching group on the reporter molecule. […] The DABCYL-ADP-1 was pre-treated in the presence of 1% TFA at room temperature for 5 minutes prior to dilution into binding buffer (0.01% Triton X-100, 5 μg/ml BSA, 1% DMSO, 50 mM Tris-HCl pH 7.6, 20 mM KCl) and incubated on ice prior to complex formation.
Reactions were equilibrated at room temperature for 15 minutes prior to analysis in the Wallac Victor2 plate reader. The reactions were excited at 485 nm and fluorescence emission recorded at 535 nm. The fluorescence emission signal of the 20 nM FAM-TAR is progressively quenched after addition of increasing amounts of DABCYL-ADP-1 peptide. The experimental data shown in FIG. 19 was analysed in GraphPad PRISMTM using a non linear regression fit for single site binding.

[5] = target: ss-19mer RNA; assay: Dabcyl-peptide binding to Fam-labelled RNA (quenching), single stranded RNA; settings: ss-19mer, 110 mM KCl
Text: as §1, §2, §3, §4, §5

[6] = target: GTPase-LHL RNA; assay: Dabcyl-peptide binding to Fam-labelled RNA (quenching), GTPase LHL; settings: GTPase-LHL, 110 mM KCl
Text: as §1, §2, §3, §4, §5

[7] = target: RRE RNA; assay: Dabcyl-peptide binding to Fam-labelled RNA (quenching), RRE; design: species or system HIV; settings: RRE, 110 mM KCl
Text: as §1, §2, §3, §4, §5

| Substance | Kd [1] | Kd [2] | Kd [3] | Kd [4] | Kd [5] | Kd [6] | Kd [7] |
| --- | --- | --- | --- | --- | --- | --- | --- |
| TAMRA-Asp-Thr-Arg-Gln-Ala-Arg-Arg-Asn-Arg-Arg-Arg-Arg-Trp-Arg-Glu Arg-Gln-Arg ({TAMRA}-DTRQARRNRRRRWRERQR) [TAMRA-Rev] | 11000 nM | 137 ± 23 nM | – | – | – | – | – |
| DABCYL-Phe-Thr-Thr-Lys-Ala-Leu-Gly-Ile-Ser-Tyr-Gly-Arg-Lys-Lys-Arg-Arg-Gln-Arg-Arg-Arg-Pro-Pro-Gln-Gly-Ser-Gln-Thr-His-Gln-Val-Ser-Leu-Ser-Lys-Gln ({DABCYL}-FTTKALGISYGRKKRRQRRRPPQGSQTHQVSLSKQ) [DABCYL-ADP-1] | – | – | 35 nM and 41 nM | 33 nM | 511 nM | 131 nM | 39 nM |
